Data from ChEMBL document CHEMBL1154380, “Lipocarbazoles, secondary metabolites from Tsukamurella pseudospumae Acta 1857 with antioxidative activity” (J Nat Prod, 2009).
Active and inactive are the calls of the source. No cut-off for these calls is given here.

What was measured:
[1] = tested on: Proteus mirabilis; experiment: Antibacterial activity against Proteus mirabilis ATCC 35501 at 1 mg/ml after 24 hrs by disk diffusion assay; assay type: functional, organism-based
[2] = tested on: Bacillus subtilis; experiment: Antibacterial activity against Bacillus subtilis DSM 10 at 1 mg/ml after 24 hrs by disk diffusion assay; assay type: functional, organism-based
[3] = tested on: Penicillium chrysogenum; experiment: Antifungal activity against Penicillium notatum Tu 136 at 1 mg/ml after 48 hrs by disk diffusion assay; assay type: functional, organism-based
[4] = tested on: Brevibacillus brevis; experiment: Antibacterial activity against Brevibacillus brevis DSM 30 at 1 mg/ml after 24 hrs by disk diffusion assay; assay type: functional, organism-based
[5] = tested on: Escherichia coli; experiment: Antibacterial activity against Escherichia coli K-12 at 1 mg/ml after 24 hrs by disk diffusion assay; assay type: functional, organism-based
[6] = tested on: Saccharomyces cerevisiae; experiment: Antifungal activity against Saccharomyces cerevisiae ATCC 9080 at 1 mg/ml after 48 hrs by disk diffusion assay; assay type: functional, organism-based
[7] = tested on: Radical scavenging activity; experiment: Antioxidant activity assessed as DPPH radical scavenging activity after 30 mins; assay type: functional
[8] = tested on: Streptomyces viridochromogenes; experiment: Antibacterial activity against Streptomyces viridochromogenes Tu 57 at 1 mg/ml after 24 hrs by disk diffusion assay; assay type: functional, organism-based
[9] = tested on: Candida albicans; experiment: Antifungal activity against Candida albicans Tu 164 at 1 mg/ml after 48 hrs by disk diffusion assay; assay type: functional, organism-based
[10] = tested on: Staphylococcus aureus; experiment: Antibacterial activity against Staphylococcus aureus DSM 20231 at 1 mg/ml after 24 hrs by disk diffusion assay; assay type: functional, organism-based
[11] = tested on: Pseudomonas fluorescens; experiment: Antibacterial activity against Pseudomonas fluorescens DSM 50090 at 1 mg/ml after 24 hrs by disk diffusion assay; assay type: functional, organism-based
[12] = tested on: Botrytis cinerea; experiment: Antifungal activity against Botrytis cinerea Tu 157 at 1 mg/ml after 48 hrs by disk diffusion assay; assay type: functional, organism-based
[13] = tested on: Paenarthrobacter aurescens; experiment: Antibacterial activity against Arthrobacter aurescens DSM 20166 at 1 mg/ml after 24 hrs by disk diffusion assay; assay type: functional, organism-based

Row | IC50 [7] [µM] | SMILES | Activity [1] | Activity [2] | Activity [3] | Activity [4] | Activity [5] | Activity [6] | Activity [8] | Activity [9] | Activity [10] | Activity [11] | Activity [12] | Activity [13]
1 | 8.7 | CCCCCCCC/C=C\CCCCCCCc1c(C)c(O)cc2c1[nH]c1ccccc12 [LIPOCARBAZOLE A3] | inactive | inactive | inactive | inactive | inactive | inactive | inactive | inactive | inactive | inactive | inactive | inactive
2 | – | CCCCC/C=C\C/C=C\CCCCCCCc1c(C)c(O)cc2c1[nH]c1ccccc12 | inactive | inactive | inactive | inactive | inactive | inactive | inactive | inactive | inactive | inactive | inactive | inactive
3 | 10.5 | CCCCCCCCCCCCCCCCCc1c(C)c(O)cc2c1[nH]c1ccccc12 | inactive | inactive | inactive | inactive | inactive | inactive | inactive | inactive | inactive | inactive | inactive | inactive
4 | – | CC/C=C\C/C=C\C/C=C\CCCCCCCc1c(C)c(O)cc2c1[nH]c1ccccc12 | inactive | inactive | inactive | inactive | inactive | inactive | inactive | inactive | inactive | inactive | inactive | inactive
5 | 13.4 | O=C1O[C@H]([C@@H](O)CO)C(O)=C1O [ASCORBIC ACID] | – | – | – | – | – | – | – | – | – | – | – | –
6 | 4.4 | CCCOC(=O)c1cc(O)c(O)c(O)c1 [PROPYL GALLATE] | – | – | – | – | – | – | – | – | – | – | – | –
